Test results: publication PMC2360155, “Novel retinoic acid metabolism blocking agents have potent inhibitory activities on human breast cancer cells and tumour growth” (British Journal of Cancer, 2007)

Key:
T47D cells [1] = test: Cell cycle analysis by flow cytometry (PI), T47D; format: cell-based, human; settings: 5 μM, 6 days (4-HPR 4 days)
Protocol: MCF-7 and T47D cells were plated in T-25 flasks and allowed to adhere for about 18 h. The cells were then synchronised by growing them in low-serum OPTI-MEM I medium for 2 days. […] After 6-day treatment, the cells were trypsinised, washed twice with PBS, centrifuged at 2500 r.p.m. to obtain a cell pellet. The cells (about 1–2 × 10^6) were fixed with 3 ml of 70% ethanol (by adding drop-wise and taking care that the cells are not clumped together). Cells were kept at −20°C until further analysis (at least overnight). Next, cells (∼1–2 × 10^6) were stained with 1 ml of propidium iodide (PI) (50 μg ml^−1)/RNase (100 μg ml^−1) solution and after about half an hour the fluorescence of stained nuclei (15 000 events) was analysed by flow cytometry (Becton Dickinson FACScan Instrument and quantification by Modfit LT version 3.1 software) with excitation wavelength of 488 nm. The percentage of G1, S, G2/M and sub-G1 (apoptotic cells) in the population of treated and untreated cells were determined.

cyclin D1 = test: Western blotting for cyclin D1 in MCF-7 cells; format: cell-based, human; settings: 6 days (4HPR 4 days)
Protocol: At the end of the treatment, cells were scrapped and collected by washing with ice-cold PBS in a centrifuge tube. Cells were centrifuged at 2500 r.p.m. for 10 min, the pellet was again washed with ice-cold PBS and centrifuged. The cell pellet was then suspended in chilled cell lysis buffer (0.1 M Tris–HCl, 0.5% Triton X-100, protease inhibitor cocktail) and sonicated on ice for 10–15 s. The homogenate was kept on ice for 30 min and then centrifuged at 13 000 r.p.m. for 30 min. The supernatant was used as cell lysate. The cell lysates were stored at −80°C. Protein concentration of the cell lysates was determined using Bio-Rad protein assay reagents.
Protein lysates from MCF-7 and T47D cells were subjected to sodium dodecyl sulphate–polyacrylamide gel electrophoresis (SDS–PAGE) and immunoblotted for different proteins. […] Immunoreactive bands were visualised using the enhanced chemiluminescence detection reagents and analysis system (Amersham Bioscences) according to the manufacturer's instructions and quantified by densitometry using ImageQuant software version 5.
Figure 5 Western blotting of whole-cell lysates of treated MCF-7 and T47D cells for the expression of Cyclin D1. […] Numbers below the blot show fold decrease in expression of the protein as analysed by ImageQuant densitometry analysis. […]

MCF-7 cells [2] = test: TUNEL apoptosis assay, MCF-7; format: cell-based, human; settings: 5 μM; 6 days; control about 1.5%
Source text: (§1) The cells were rinsed with PBS and then the stained-labelled apoptotic cells were mounted using DAPI (diamidino-2-phenylindole 2HCl)-glycerol and visualised with a fluorescent microscope using two filters (1) for TUNEL stained cells, and (2) for DAPI stained cells, which represents all the cells (nuclei). Fluorescent microscope model was Nikon, Eclipse E400 and the software was SPOT advanced version 3.5.5 by Diagnostic Instruments Inc. (Sterling Heights, MI, USA).
(§2) Figure 6 Graphs showing apoptosis induced in (A) MCF-7 and (B) T47D cells as determined by TUNEL. […] TUNEL-stained apoptotic cells were counted against the DAPI stained cells to obtain percentage apoptosis. The experiments were repeated thrice with similar results. Error bars show s.e.m of three different fields of treated cells, statistically significant ^*P<0.01 and ^**P<0.001 vs control.

T47D cells [3] = test: TUNEL apoptosis assay, T47D; format: cell-based, human; settings: 5 μM; 6 days; control about 1.5%
Source text: as §1, §2

MCF-7 cells [4] = system: MCF-7 cells; set-up: method as in Patel et al. (2004); settings: inhibition of cell proliferation by 50%; ref Patel et al. (2004); read-out: Cellular IC50, MCF-7; cited from earlier work
MDA-MB-231 cells = system: MDA-MB-231 cells; set-up: method as in Patel et al. (2004); settings: inhibition of cell proliferation by 50%; ref Patel et al. (2004); read-out: Cellular IC50, MDA-MB-231; cited from earlier work

In the case of `CC1=C(/C=C/C(C)=C/C=C/C(C)=C/C(=O)Nc2ccc(O)cc2)C(C)(C)CCC1` [Compound 4-HPR, 4-Hydroxyphenyl retinamide, reference compound], the “G2/M (%)” value (T47D cells [1]) is reported as 16.75±4.39%, the “Go/G1 (%)” value (T47D cells [1]) is reported as 76.94±3.47% and the “S (%)” value (T47D cells [1]) is reported as 6.32±0.93%. For the same compound, the “Sub-G1 (%)” value (T47D cells [1]) was 30.25±6.66%, the “Decrease of cyclin D1 protein expression compared with untreated control” value (cyclin D1) was greater than 80% and the “Induction of apoptosis (TUNEL), MCF-7” value (MCF-7 cells [2]) was 20–25%. The “Induction of apoptosis (TUNEL), T47D” value (T47D cells [3]) was 20–25%, the IC50 (MCF-7 cells [4]) was 148 nM and the IC50 (MDA-MB-231 cells) was 1400 nM.
